pIC50: −log10 of the molar value.
How the values were obtained:
[1] = system: TGF-β signaling (TGF-β pSMAD, MPC-11); experiment: AlphaScreen SureFire SMAD3 (p-Ser423/425) assay, inhibition of TGF-β signaling; assay type: cell-based; details: Mus musculus, p-SMAD-3 (Ser423/425) in cell lysate after TGF-β stimulation
In short: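 Phosphorylation of endogenous SMAD-3 at Ser423/425 was quantified with an AlphaScreen SureFire assay. Cells were exposed to compound for about 10 minutes, stimulated with TGF-β, and lysed in 1× Lysis Buffer. Lysate (5 μL) was combined with Reaction/Activation buffer plus Acceptor beads for 2 hours, then Donor beads for 1½ hours, and read on a plate reader.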

[2] = system: GDF8 signaling (GDF pSMAD, MPC11); experiment: AlphaScreen SureFire SMAD3 (p-Ser423/425) assay, inhibition of GDF8 signaling; assay type: cell-based; details: Mus musculus, MPC-11, p-SMAD-3 (Ser423/425) in cell lysate after GDF8 stimulation

SMILES	pIC50 [1]	pIC50 [2]
Fc1ccc(-c2nn3c(c2-c2ccc4ncnn4c2)CCC3)cc1OC(F)(F)F [Compound 154, 6-(2-(4-Fluoro-3-trifluoromethoxyphenyl)-5,6-dihydro-4H-pyrrolo[1,2-b]pyrazol-3-yl)-[1,2,4]triazolo[1,5-a]pyridine]	6.08	6.35
Fc1cccc(-c2nn3c(c2-c2ccc4ncsc4c2)CCC3)c1 [Compound 81, 6-(2-(3-Fluorophenyl)-5,6-dihydro-4H-pyrrolo[1,2-b]pyrazol-3-yl)benzo[d]thiazole]	5.73	6.43
Fc1ccc(-c2nn3c(c2-c2ccc4ncnn4c2)CCC3)cc1 [Compound 103, 6-(2-(4-Fluorophenyl)-5,6-dihydro-4H-pyrrolo[1,2-b]pyrazol-3-yl)-[1,2,4]triazolo[1,5-a]pyridine]	6.28	6.88
Fc1ccc(-c2nn3c(c2-c2ccc4ncsc4c2)OCC3)cc1 [Compound 68, 7-(Benzo[d]thiazol-6-yl)-6-(4-fluorophenyl)-2,3-dihydropyrazolo[5,1-b]oxazole]	5.96	6.48
FC(F)(F)c1cccc(-c2nn3c(c2-c2ccc4[nH]ncc4c2)OCC3)c1 [Compound 59, 7-(1H-Indazol-5-yl)-6-(3-trifluoromethylphenyl)-2,3-dihydropyrazolo[5,1-b]oxazole]	6.15	6.66
Fc1ccc(-c2nn3c(c2-c2ccc4ncsc4c2)CCC3)cc1 [Compound 14, 6-(2-(4-Fluorophenyl)-5,6-dihydro-4H-pyrrolo[1,2-b]pyrazol-3-yl)benzo[d]thiazole]	6.01	6.53
Cc1cc(-c2nn3c(c2-c2ccc4ncn(C)c4c2)CCC3)ccc1F [Compound 16, 6-(2-(4-Fluoro-3-methylphenyl)-5,6-dihydro-4H-pyrrolo[1,2-b]pyrazol-3-yl)-1-methyl-1H-benzo[d]imidazole]	6.88	7.19
Clc1cccc(-c2nn3c(c2-c2ccc4ncnn4c2)CCC3)c1 [Compound 107, 6-(2-(3-Chlorophenyl)-5,6-dihydro-4H-pyrrolo[1,2-b]pyrazol-3-yl)-[1,2,4]triazolo[1,5-a]pyridine]	6.82	7.46
COc1ccc(F)c(-c2nn3c(c2-c2ccc4nccn4c2)CCC3)c1 [Compound 164, 6-(2-(2-Fluoro-5-methoxyphenyl)-5,6-dihydro-4H-pyrrolo[1,2-b]pyrazol-3-yl)imidazo[1,2-a]pyridine]	5.88	6.24
Fc1ccc(-c2nn3c(c2-c2ccc4ncnn4c2)CCC3)cc1F [Compound 110, 6-(2-(3,4-Difluorophenyl)-5,6-dihydro-4H-pyrrolo[1,2-b]pyrazol-3-yl)-[1,2,4]triazolo[1,5-a]pyridine]	6.23	6.90
COc1cccc(-c2nn3c(c2-c2ccc4ncsc4c2)CCC3)c1 [Compound 30, 6-(2-(3-Methoxyphenyl)-5,6-dihydro-4H-pyrrolo[1,2-b]pyrazol-3-yl)benzo[d]thiazole]	6.58	7.31
Fc1ccc(-c2nn3c(c2-c2ccc4nccnc4c2)CCC3)cc1 [Compound 53, 6-(2-(4-Fluorophenyl)-5,6-dihydro-4H-pyrrolo[1,2-b]pyrazol-3-yl)quinoxaline]	5.63	6.40
COc1ccc(-c2nn3c(c2-c2ccc4nccnc4c2)CCC3)cc1 [Compound 102, 6-(2-(4-Methoxyphenyl)-5,6-dihydro-4H-pyrrolo[1,2-b]pyrazol-3-yl)quinoxaline]	5.38	6.16
FC(F)(F)Oc1cccc(-c2nn3c(c2-c2ccc4ncnn4c2)CCC3)c1 [Compound 127, 6-(2-(3-Trifluoromethoxyphenyl)-5,6-dihydro-4H-pyrrolo[1,2-b]pyrazol-3-yl)-[1,2,4]triazolo[1,5-a]pyridine]	7.15	7.44
Cc1cccc(-c2nn3c(c2-c2ccc4ncsc4c2)OCC3)c1 [Compound 39]	6.76	7.22
Cc1cccc(-c2nn3c(c2-c2ccc4ncsc4c2)OCCC3)c1 [Compound 43, 3-(benzo[d]thiazol-6-yl)-2-(m-tolyl)-6,7-dihydro-5H-pyrazolo[5,1-b][1,3]oxazine]	6.30	6.83
Cc1cccc(-c2nn3c(c2-c2ccc4[nH]ncc4c2)OCC3)c1 [Compound 36, 7-(1H-Indazol-5-yl)-6-(m-tolyl)-2,3-dihydropyrazolo[5,1-b]oxazole]	6.28	6.99
COc1cccc(-c2nn3c(c2-c2ccc4ncsc4c2)OCC3)c1 [Compound 74, 7-(Benzo[d]thiazol-6-yl)-6-(3-methoxyphenyl)-2,3-dihydropyrazolo[5,1-b]oxazole]	5.98	6.62
COc1ccc(-c2nn3c(c2-c2ccc4ncsc4c2)CCC3)cc1 [Compound 100, 6-(2-(4-Methoxyphenyl)-5,6-dihydro-4H-pyrrolo[1,2-b]pyrazol-3-yl)benzo[d]thiazole]	5.43	6.16

Now from value to compound:

pIC50 [1]	pIC50 [2]	SMILES
6.15	6.76	Cc1cc(-c2nn3c(c2-c2ccc4[nH]ncc4c2)CCC3)c(F)cc1F [Compound 179, 5-(2-(2,4-Difluoro-5-methyphenyl)-5,6-dihydro-4H-pyrrolo[1,2-b]pyrazol-3-yl)-1H-indazole]
6.72	7.07	FC(F)(F)Oc1cccc(-c2nn3c(c2-c2ccc4cn[nH]c4c2)CCC3)c1 [Compound 123, 6-(2-(3-Trifluoromethoxyphenyl)-5,6-dihydro-4H-pyrrolo[1,2-b]pyrazol-3-yl)-1H-indazole]
5.55	6.36	Fc1ccc(-c2nn3c(c2-c2ccc4cn[nH]c4c2)CCC3)c(F)c1Cl [Compound 156, 6-(2-(3-Chloro-2,4-difluorophenyl)-5,6-dihydro-4H-pyrrolo[1,2-b]pyrazol-3-yl)-1H-indazole]
7.10	7.67	Cc1cccc(-c2nn3c(c2-c2ccc4cn[nH]c4c2)CCC3)c1 [Compound 8, 6-(2-(m-Tolyl)-5,6-dihydro-4H-pyrrolo[1,2-b]pyrazol-3-yl)-1H-indazole]
6.02	6.56	COCCOc1cnc2ccc(-c3c(-c4cc(F)ccc4F)nn4c3CCC4)cc2n1 [Compound 200, 7-(2-(2,5-difluorophenyl)-5,6-dihydro-4H-pyrrolo[1,2-b]pyrazol-3-yl)-2-(2-methoxyethoxy)quinoxaline]
5.75	6.17	Cc1c(F)ccc(-c2nn3c(c2-c2ccc4nccnc4c2)CCC3)c1F [Compound 172, 6-(2-(2,4-Difluoro-3-methylphenyl)-5,6-dihydro-4H-pyrrolo[1,2-b]pyrazol-3-yl)quinoxaline]
6.48	7.58	Fc1ccc(F)c(-c2nn3c(c2-c2ccc4ncnn4c2)CCC3)c1 [Compound 198, 6-(2-(2,5-Difluorophenyl)-5,6-dihydro-4H-pyrrolo[1,2-b]pyrazol-3-yl)-[1,2,4]triazolo[1,5-a]pyridine]
6.09	6.86	Fc1cc(F)c(-c2nn3c(c2-c2ccc4[nH]ncc4c2)CCC3)cc1F [Compound 112, 5-(2-(2,4,5-Trifluorophenyl)-5,6-dihydro-4H-pyrrolo[1,2-b]pyrazol-3-yl)-1H-indazole]
6.85	7.35	Cc1cc(-c2nn3c(c2-c2ccc4[nH]ncc4c2)CCC3)ccc1F [Compound 2, 5-(2-(4-Fluoro-3-methylphenyl)-5,6-dihydro-4H-pyrrolo[1,2-b]pyrazol-3-yl)-1H-indazole]
7.54	8.14	COc1ccc(F)c(-c2nn3c(c2-c2ccc4nccnc4c2)CCC3)c1 [Compound 165, 6-(2-(2-Fluoro-5-methoxyphenyl)-5,6-dihydro-4H-pyrrolo[1,2-b]pyrazol-3-yl)quinoxaline]
6.30	6.89	Fc1ccc(-c2nn3c(c2-c2ccc4[nH]ncc4c2)CCC3)cc1 [Compound 5, 5-(2-(4-Fluorophenyl)-5,6-dihydro-4H-pyrrolo[1,2-b]pyrazol-3-yl)-1H-indazole]
6.04	6.75	Fc1ccc(F)c(-c2nn3c(c2-c2ccc4nccn4c2)CCC3)c1 [Compound 194, 6-(2-(2,5-Difluorophenyl)-5,6-dihydro-4H-pyrrolo[1,2-b]pyrazol-3-yl)imidazo[1,2-a]pyridine]
6.29	7.15	Fc1ccc(-c2nn3c(c2-c2ccc4[nH]ncc4c2)CCC3)cc1F [Compound 83, 5-(2-(3,4-Difluorophenyl)-5,6-dihydro-4H-pyrrolo[1,2-b]pyrazol-3-yl)-1H-indazole]
6.46	6.98	Fc1cc(F)c(-c2nn3c(c2-c2ccc4[nH]ncc4c2)CCC3)cc1Cl [Compound 186, 5-(2-(5-Chloro-2,4-difluorophenyl)-5,6-dihydro-4H-pyrrolo[1,2-b]pyrazol-3-yl)-1H-indazole]
6.52	6.86	Cc1cc(-c2nn3c(c2-c2ccc4nccnc4c2)CCC3)c(F)cc1F [Compound 184, 6-(2-(2,4-Difluoro-5-methylphenyl)-5,6-dihydro-4H-pyrrolo[1,2-b]pyrazol-3-yl)quinoxaline]
6.26	7.07	Fc1ccc(-c2nn3c(c2-c2ccc4ncsc4c2)CCC3)c(F)c1Cl [Compound 158, 6-(2-(3-Chloro-2,4-difluorophenyl)-5,6-dihydro-4H-pyrrolo[1,2-b]pyrazol-3-yl)benzo[d]thiazole]
6.06	6.57	Fc1cc(F)c(-c2nn3c(c2-c2ccc4ncccc4c2)CCC3)cc1Cl [Compound 190, 6-(2-(5-Chloro-2,4-difluorophenyl)-5,6-dihydro-4H-pyrrolo[1,2-b]pyrazol-3-yl)quinoline]

Reference: patent publication US10822337B2, “TGF-β inhibitorC” (Rigel Pharmaceuticals, Inc., priority 2015, dated 2020)
